Assay [1] deals with T1, MAO-B (Homo sapiens, UniProt P27338).
T1 sequence (P27338 1-520): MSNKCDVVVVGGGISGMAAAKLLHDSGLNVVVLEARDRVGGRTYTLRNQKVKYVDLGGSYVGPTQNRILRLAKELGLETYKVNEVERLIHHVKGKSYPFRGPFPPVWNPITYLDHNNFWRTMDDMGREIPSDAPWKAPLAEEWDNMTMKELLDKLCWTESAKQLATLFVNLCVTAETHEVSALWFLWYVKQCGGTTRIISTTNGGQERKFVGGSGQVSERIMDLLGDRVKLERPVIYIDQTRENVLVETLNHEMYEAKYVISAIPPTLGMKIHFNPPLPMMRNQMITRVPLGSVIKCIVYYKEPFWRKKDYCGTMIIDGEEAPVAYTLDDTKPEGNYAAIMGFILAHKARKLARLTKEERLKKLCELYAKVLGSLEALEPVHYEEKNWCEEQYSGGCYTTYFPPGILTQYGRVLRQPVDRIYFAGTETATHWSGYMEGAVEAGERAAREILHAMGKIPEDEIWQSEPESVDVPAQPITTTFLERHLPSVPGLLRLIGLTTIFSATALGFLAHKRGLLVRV
Description: biochemical. To be noted: for remaining activity at 10 µM: read-out: Residual Activity at 10 µM (%) MAO-B.

Assay [2] deals with T2, hMAO-A (Homo sapiens, UniProt P21397).
T2 sequence (P21397 1-527): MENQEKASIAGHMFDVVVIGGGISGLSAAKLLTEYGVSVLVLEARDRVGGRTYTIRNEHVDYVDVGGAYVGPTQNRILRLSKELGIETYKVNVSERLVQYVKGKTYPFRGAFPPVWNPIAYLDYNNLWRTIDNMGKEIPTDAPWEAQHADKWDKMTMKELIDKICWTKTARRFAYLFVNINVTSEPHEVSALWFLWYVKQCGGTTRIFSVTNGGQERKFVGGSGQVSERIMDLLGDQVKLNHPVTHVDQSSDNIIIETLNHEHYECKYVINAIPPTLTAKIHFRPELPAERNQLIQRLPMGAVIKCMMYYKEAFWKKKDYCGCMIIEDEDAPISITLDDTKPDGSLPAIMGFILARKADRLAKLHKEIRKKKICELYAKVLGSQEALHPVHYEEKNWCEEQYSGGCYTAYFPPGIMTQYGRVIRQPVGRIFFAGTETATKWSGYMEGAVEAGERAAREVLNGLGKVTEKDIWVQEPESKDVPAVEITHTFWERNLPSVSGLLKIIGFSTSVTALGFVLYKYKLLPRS
Description: Inhibition of recombinant hMAO-A, kynuramine substrate, continuous absorbance method. To be noted: for remaining activity at 10 µM: read-out: Residual Activity at 10 µM (%) MAO-A.

Regarding `COc1cc(C=NNC(=O)Cn2nc(N3CCC(Cc4ccccc4)CC3)ccc2=O)cc(OC)c1` [Compound S20, N′-3,5-dimethoxybenzylidene-2-(3-(4-benzylpiperidin-1-yl)-6-oxopyridazin-1(6H)-yl)acetohydrazide], in assay [1], the IC50 was found to be 3.63 ± 0.142 µM and the remaining activity at 10 µM worked out at 11.7 ± 2.41%. In addition, in assay [2], the IC50 worked out at 19 ± 2.71 µM and the remaining activity at 10 µM came to 68 ± 4.21%.
For `CN(C)c1ccc(C=NNC(=O)Cn2nc(N3CCC(Cc4ccccc4)CC3)ccc2=O)cc1` [Compound S13], in that order: 6.48 ± 0.559 µM, 37.6 ± 2.5%, 5.63 ± 1.18 µM and 36.1 ± 1.01%.
For `COc1cccc(C=NNC(=O)Cn2nc(N3CCC(Cc4ccccc4)CC3)ccc2=O)c1OC` [Compound S22, N′-2,3-dimethoxybenzylidene-2-(3-(4-benzylpiperidin-1-yl)-6-oxopyridazin-1(6H)-yl)acetohydrazide], in that order: 7.87 ± 0.208 µM, 39 ± 2.83%, 5.94 ± 0.264 µM and -8.5 ± 2.12%.
For `O=C(Cn1nc(N2CCC(Cc3ccccc3)CC2)ccc1=O)NN=Cc1ccc(F)cc1` [Compound S8], in that order: 5.37 ± 0.123 µM, 31.9 ± 2.62%, 7.99 ± 1.28 µM and 22.4 ± 3.07%.
With `O=C(Cn1nc(N2CCC(Cc3ccccc3)CC2)ccc1=O)NN=Cc1cccc(Br)c1` [Compound S4, N′-3-bromobenzylidene-2-(3-(4-benzylpiperidin-1-yl)-6-oxopyridazin-1(6H)-yl)acetohydrazide], the values for the IC50 in assay [1] and in assay [2] were 6.17 ± 0.155 µM and 27 ± 0.797 µM, respectively. Moreover, the remaining activity at 10 µM in assay [1] was found to be 33.5 ± 2.5%; in assay [2], 56.9 ± 9.78%.
Regarding `O=C(Cn1nc(N2CCC(Cc3ccccc3)CC2)ccc1=O)NN=Cc1ccccc1Br` [Compound S3, N′-2-bromobenzylidene-2-(3-(4-benzylpiperidin-1-yl)-6-oxopyridazin-1(6H)-yl)acetohydrazide], in assay [1], inhibition was half-maximal at 4.75 ± 0.155 µM (IC50) and the remaining activity at 10 µM came out at 50.59 ± 0.01%. Also, in assay [2], the IC50 was 4.13 ± 1.12 µM and the remaining activity at 10 µM stood at 34.4 ± 1.93%.
For `COc1ccc(C=NNC(=O)Cn2nc(N3CCC(Cc4ccccc4)CC3)ccc2=O)c(OC)c1` [Compound S24, N′-2,4-dimethoxybenzylidene-2-(3-(4-benzylpiperidin-1-yl)-6-oxopyridazin-1(6H)-yl)acetohydrazide], in that order: 10.7 ± 2.48 µM, 54.7 ± 3.76%, 4.13 ± 0.107 µM and 20.7 ± 1.34%.
Take `C#CCN(C)Cc1ccccc1` [Pargyline, reference compound]: the remaining activity at 10 µM in assay [2] was found to be 19.9 ± 6.82%.
Take `O=C(Cn1nc(N2CCC(Cc3ccccc3)CC2)ccc1=O)NN=Cc1ccc(Br)cc1` [Compound S2]: in assay [1], half-maximal inhibition (IC50) required 10.7 ± 0.565 µM and the remaining activity at 10 µM turned out to be 56.5 ± 4.99%. Further, in assay [2], the IC50 was 10.9 ± 1.19 µM and the remaining activity at 10 µM stood at 54.8 ± 3.1%.
For `O=C(Cn1nc(N2CCC(Cc3ccccc3)CC2)ccc1=O)NN=Cc1ccc(Cl)cc1` [Compound S6], the IC50 worked out at 4.95 ± 0.353 µM in assay [1] and 7.14 ± 1.07 µM in assay [2]. The remaining activity at 10 µM in assay [1] came to 26.7 ± 3.83%; in assay [2], 42.2 ± 3.22%.
Turning to `O=C(Cn1nc(N2CCC(Cc3ccccc3)CC2)ccc1=O)NN=Cc1ccccc1` [Compound S1], in assay [1], the IC50 was 7.05 ± 0.086 µM and the remaining activity at 10 µM was determined as 36.5 ± 8.32%. Moreover, in assay [2], the IC50 was 16.47 ± 0.047 µM and the remaining activity at 10 µM worked out at 63.4 ± 2.24%.
Take `O=C(Cn1nc(N2CCC(Cc3ccccc3)CC2)ccc1=O)NN=Cc1cccc(F)c1` [Compound S7, N′-3-fluorobenzylidene-2-(3-(4-benzylpiperidin-1-yl)-6-oxopyridazin-1(6H)-yl)acetohydrazide]: in assay [1], the IC50 amounted to 1.711 ± 0.009 µM and the remaining activity at 10 µM was 1.03 ± 4.63%. In assay [2], the IC50 worked out at 4.74 ± 0.624 µM and the remaining activity at 10 µM turned out to be 12.8 ± 7.24%.
For `O=C(Cn1nc(N2CCC(Cc3ccccc3)CC2)ccc1=O)NN=Cc1ccc([N+](=O)[O-])cc1` [Compound S14], in assay [1], 3.62 ± 0.54 µM corresponded to half-maximal inhibition (IC50) and the remaining activity at 10 µM stood at 39.8 ± 4.14%. Also, in assay [2], the IC50 was determined as 24.2 ± 0.283 µM and the remaining activity at 10 µM was 67.1 ± 5.19%.
In the case of `Cc1ccccc1C=NNC(=O)Cn1nc(N2CCC(Cc3ccccc3)CC2)ccc1=O` [Compound S9, N′-2-methylbenzylidene-2-(3-(4-benzylpiperidin-1-yl)-6-oxopyridazin-1(6H)-yl)acetohydrazide], in assay [1], the IC50 came out at 7.24 ± 0.994 µM and the remaining activity at 10 µM was 32.9 ± 5.19%. Moreover, in assay [2], the IC50 came to 4.51 ± 0.589 µM and the remaining activity at 10 µM was determined as 23.2 ± 1.2%.
For the molecule `COc1cc(OC)c(C=NNC(=O)Cn2nc(N3CCC(Cc4ccccc4)CC3)ccc2=O)c(OC)c1` [Compound S21, N′-2,4,6-trimethoxybenzylidene-2-(3-(4-benzylpiperidin-1-yl)-6-oxopyridazin-1(6H)-yl)acetohydrazide], in assay [1], the IC50 was 6.12 ± 0.662 µM and the remaining activity at 10 µM was 48.5 ± 6.43%. Besides, in assay [2], the IC50 amounted to 7.47 ± 0.344 µM and the remaining activity at 10 µM came out at 32.8 ± 2.18%.
With `N#Cc1ccc(C=NNC(=O)Cn2nc(N3CCC(Cc4ccccc4)CC3)ccc2=O)cc1` [Compound S18, N′-4-cyanobenzylidene-2-(3-(4-benzylpiperidin-1-yl)-6-oxopyridazin-1(6H)-yl)acetohydrazide], in assay [1], inhibition was half-maximal at 3.51 ± 0.811 µM (IC50) and the remaining activity at 10 µM came out at 48.37 ± 0.08%. For the same molecule, in assay [2], the IC50 was found to be 7.19 ± 0.201 µM and the remaining activity at 10 µM worked out at 35.9 ± 2.54%.
As to `N#Cc1cccc(C=NNC(=O)Cn2nc(N3CCC(Cc4ccccc4)CC3)ccc2=O)c1` [Compound S17, N′-3-cyanobenzylidene-2-(3-(4-benzylpiperidin-1-yl)-6-oxopyridazin-1(6H)-yl)acetohydrazide], in assay [1], the half-inhibitory concentration (IC50) was 3.1 ± 0.088 µM and the remaining activity at 10 µM turned out to be 0%. Further, in assay [2], the IC50 was determined as 6.28 ± 0.306 µM and the remaining activity at 10 µM amounted to 9.98 ± 0.57%.
`Cc1cccc(C=NNC(=O)Cn2nc(N3CCC(Cc4ccccc4)CC3)ccc2=O)c1` [Compound S10, N′-3-methylbenzylidene-2-(3-(4-benzylpiperidin-1-yl)-6-oxopyridazin-1(6H)-yl)acetohydrazide]: in assay [1], the IC50 worked out at 3.549 ± 0.001 µM and the remaining activity at 10 µM was determined as 9.31 ± 2.04%. In assay [2], the IC50 is 4.53 ± 0.424 µM and the remaining activity at 10 µM was 16.1 ± 4.26%.
`CCc1ccc(C=NNC(=O)Cn2nc(N3CCC(Cc4ccccc4)CC3)ccc2=O)cc1` [Compound S15, N′-4-ethylbenzylidene-2-(3-(4-benzylpiperidin-1-yl)-6-oxopyridazin-1(6H)-yl)acetohydrazide]: in assay [1], the IC50 was determined as 5.34 ± 0.667 µM and the remaining activity at 10 µM came out at 54.4 ± 4.05%. Besides, in assay [2], the IC50 turned out to be 3.69 ± 0.655 µM and the remaining activity at 10 µM was determined as 30.1 ± 8.1%.
For the molecule `COc1ccc(C=NNC(=O)Cn2nc(N3CCC(Cc4ccccc4)CC3)ccc2=O)cc1` [Compound S12], in assay [1], inhibition was half-maximal at 6.463 ± 0.035 µM (IC50) and the remaining activity at 10 µM amounted to 38.46 ± 0.36%. In assay [2], the half-maximal inhibitory concentration (IC50) is 4.642 ± 0.001 µM and the remaining activity at 10 µM stood at 7.71 ± 8.25%.
For `COc1ccccc1C=NNC(=O)Cn1nc(N2CCC(Cc3ccccc3)CC2)ccc1=O` [Compound S19, N′-2-methoxybenzylidene-2-(3-(4-benzylpiperidin-1-yl)-6-oxopyridazin-1(6H)-yl)acetohydrazide], the results for the remaining activity at 10 µM in assay [1] and in assay [2] were 20.8 ± 1.76% and 7.83 ± 2.05%, respectively. Further, the IC50 in assay [2] is 4.66 ± 0.307 µM.

Source of the values: publication PMC11243598, “Inhibition of Monoamine Oxidases by Pyridazinobenzylpiperidine Derivatives” (Molecules, 2024).
